Test results from patent publication US4221909A, “P-Acetamidobenzoic acid salts of 9-(hydroxyalkyl) purines” (Sloan-Kettering Institute for Cancer Research, priority 1978, dated 1980).
Entries after “also recorded” stand apart in the source; their conditions may differ.

Experiments:
Type in all cases: cell-based
[1] = test system: Influenza A USSR/90(H1 N1); assay: Anti-Influenza Activity (Hemadsorption Assay), Influenza A USSR/90; settings: for inhibition: Influenza A virus, read-out: % Inhibition of Hemadsorption Foci
Description: (§1) Upon infection of a monolayer of tissue culture cells by influenza virus, the cell surface is altered so that guinea pig erythrocytes can be adsorbed to the cell surface. The number of foci of adsorbed cells (hemadsorption foci forming units HAFFU) is a quantitative measure of infectivity. The method is as follows.
The monolayers were subcultured in the following manner: The medium was poured off, and the monolayer washed two times with approximately 50 ml per wash of calcium and magnesium free phosphate buffered saline (PBS), (GIBCO #419) at a pH of 7.2. One ml of trypsin-EDTA solution (GIBCO #530L) containing 0.5 g trypsin (1:250) and 2.0 g EDTA/liter of Modified Puck's Saline A was added at 37° C. to each flask and dispersed over the monolayer with gentle shaking. The flasks were then placed in an incubator at 37° C. for approximately 3-5 minutes depending on the time required to dislodge the cells. Occasional shaking was required. Ten ml of planting medium was added to each flask and the cells dispersed by aspirating and expelling the suspension from the pipette. The contents of a series of flasks were pooled and the cells in the suspension were diluted with planting medium to 7-8.5×10^4 cells/ml. The planting medium consisted of the following composition: Minimum Essential Medium Eagles (MEM) with Earle's salts and HEPES buffer (GIBCO #236) supplemented by adding the following substances as specified to 87 ml of MEM:
The following day the medium was removed and replaced with fresh planting medium. The monolayers were used for experimentation when they reached a condition in which they were almost confluent (approximately 3-4 days).
(§2) When the Linbro tray HeLa cell cultures were ready for experimentation (see cells), the medium was decanted and 1 ml of maintenance medium (MEM with FCS reduced to 3%) containing the compound being tested at a given concentration was added to 4 replicate cultures within a tray.
(§3) A series of different drug concentrations ranging from 2.3 to 150 μg/ml were used. Maintenance medium alone was used for control cultures. After the administration of drug and control medium, 0.1 ml of the diluted viral suspension was added to experimental groups and infected control cultures. Saline alone was added to non-infected control cultures. The Linbro trays were then incubated at 37° C. for 18 hours, after which media in all groups was aspirated. Each culture was washed once with PBS. The saline was aspirated and 0.5 ml of a 0.4% v/v guinea pig red blood cell suspension in PBS was added to each culture well. The cultures remained at room temperature for 30 minutes after which the medium was decanted and culture washed […] with PBS to remove all but the specifically bound red cells. After the third wash, maintenance medium was added to all cultures.
(§4) A Howard Micrometer eyepiece (C8385) was inserted within the ocular of a Nikon inverted phase contrast microscope. Each culture was scanned with a 4× low paper objective and direct counts of hemadsorbed red cells were counted using the eyepiece grid as a field marker. Partial or complete fields were counted per experimental group depending on the resulting number and density of hemadsorbed cells in the infected control cultures. Magnification of 60× or 150× were chosen to obtain the best conditions for enumerating the hemadsorbed cells. Field factors were calculated for counting hemadsorption at 60× and 150×. At 60× magnification, total field count was calculated using a multiplication factor of 55.5. At 150× magnification the multiplication factor was 273. The multiplication factors of 55.5 and 273 represent the total number of fields at 60× and 150× magnifications, respectively. The number of fields counted ranged from 3 to 5 per well with 3 to 4 wells per treatment group employed (see raw data tables in results section for number of fields examined). Means and standard errors were calculated and the data was evaluated using student's t-test analysis.

[2] = test system: Influenza A Swine 1976 (Hlsw -N1); assay: Inhibition of influenza virus replication, Swine 1976
Description: as §1, §2, §3, §4

Mouse spleen cells = assay: Mitogen Induced (Con A) Mouse Lymphocyte Proliferation
Excerpt: (§5) The following three assay procedures are used to evaluate the ability of the test substances to modulate the activity of several classes of cells in the immune system. In these systems it is possible to identify both immunopotentiating activity (evidence by an enhancement of the parameter examined) as well as immunosuppressant activity (evidenced by an inhibition of the parameter examined).
1. Mitogen--Induced Mouse Spleen Cell Assay--Mouse spleen cells contain a population of both B and T lymphocytes which can be stimulated by a number of foreign substances (e.g., plant mitogens such as Con A) to proliferate. This enhanced proliferation is an indication of enhanced cell mediated immunity. The method below describes the system used to evaluate test substances as immunopotentiators.
Concanavalin A (Calbiochem, La Jolla, Calif.), Lot #210073, lyophilized in NaCl, was prepared first as a 1% solution and diluted as a 2× concentration for each dilution (0.5, 1.0, 2.5 μg/ml).
Six to eight week old male Balb/c and C3 H inbred mice were obtained from the following sources: Flow Research Animals, Inc., Dublin, Va.; Charles River Breeding Laboratories, Wilmington, Mass.; Laboratory Supply Company, Indianapolis, Ind.; and Lionel Strong Foundation, San Diego, Calif.
Three to five mice were sacrificed by cervical dislocation and the spleens aseptically removed. Pooled spleens were minced and teased with sterile forceps; then strained through a double layer of nylon mesh. The cell suspension was washed once with 15 ml of RPMI 1640 supplemented with 5% fetal calf serum and antibiotics. Cells were cultured at a concentration of 10^6 cells/0.1 ml/well in micro-plates. Cultures were incubated in the presence or absence of mitogen in a humidified atmosphere containing 5% CO2 for 48 hours. The test compound was added to cultures at various concentrations concommitant with mitogen.
Proliferation was assayed by the degree of incorporation of 1.0 μCi of [^3 H] thymidine over an 18 hour incubation period. Cultures were harvested by a MASH unit (Otto Hiller Co., Madison, Wisconsin) and thymidine incorporation was assayed by liquid scintillation spectrometry. Cultures were performed in triplicate and data are expressed as means plus or minus the strandard error of the experimental means. Drug stimulation indices over control values were also calculated and portrayed graphically.

influenza virus = assay: Anti-influenza activity (summary); settings: for number of different strains of influenza virus inhibited: concentrations ranging from 1-150 μg/ml
immune response = assay: Immunomodulation / immune response potentiation (summary); settings: for DIP.PAcBA potentiation of Immunpotentiation: DIP.PAcBA salt vs parent compound; for potentiation of the immune response: three test systems of Table 4
Excerpt: as §5
Table 4 above presents the results of an evaluation of a number of these subject compounds as potentiators of the immune response. Three different test systems were used. The first involves a measure of the ability of the test compound to enhance the ability of mouse lymphocytes to proliferate in response to a plant mitogen (Con A). The second involves measuring the ability of the test compounds to enhance human lymphocyte proliferation in response to a second plant mitogen (PHA). The third system measures the ability of these test substances to enhance macrophage proliferation in response to a natural lymphokine (MMF, Macrophage Mitogenic Factor).

Structure (SMILES)	% Inhibition of Hemadsorption Foci ([1]; Conc. 10-100 μg/ml) [%]	% Inhibition of Hemadsorption Foci ([1]; Conc. >100 μg/ml) [%]	% Inhibition ([2]; >100 μg/ml) [%]	DIP.PAcBA potentiation of Anti-Influenza activity (influenza virus)	DIP.PAcBA potentiation of Immunpotentiation (immune response)	potentiation of the immune response (immune response)	inhibition ([1]; Conc. 10-100 μg/ml) [%]	% Inhibition ([2]; 10-100 μg/ml) [%]	anti-influenza activity by themselves (influenza virus)	number of different strains of influenza virus inhibited (influenza virus)	further results
CCCCCCC(CO)n1cnc2c(=O)[nH]cnc21 (stereo not drawn) [NPT 15418]	46	52	> 70	does potentiate the anti-influenza activity and Yes	Yes	Significant potentiation					% Inhibition of Hemadsorption Foci ([1]; Conc. <10 μg/ml): 16%; Maximum Percent Change, Mitogen Induced (Con A) Mouse Lymph. Prolif. (Mouse spleen cells; 1.0-10, listed as 15418): 73%; Maximum Percent Change, Mitogen Induced (Con A) Mouse Lymph. Prolif. (Mouse spleen cells; 10-100, listed as 15418): 26%; Maximum Percent Change, Mitogen Induced (Con A) Mouse Lymph. Prolif. (Mouse spleen cells; .01-1.0, listed as 15418): 41%
CCCCCC[C@H]([C@H](C)O)n1cnc2c(=O)[nH]cnc21 (relative stereo) [NPT 15392, Erythro-9-(2-Hydroxy-3-Nonyl)Hypoxanthine]			> 70			Significant potentiation	100	> 70	significant anti-influenza activity	at least 4 different strains	% Inhibition of Hemadsorption Foci ([1]; Conc. <10 μg/ml, listed as 15392): 86%; % Inhibition ([2]; 0.1-1.0 μg/ml, listed as 15392): 30-50%
CCCCCCC(CO)n1cnc2c(=O)[nH]cnc21 (stereo not drawn) [NPT 15417]							58	> 70	significant anti-influenza activity	at least 4 different strains	Maximum Percent Change, Mitogen Induced (Con A) Mouse Lymph. Prolif. (Mouse spleen cells; 1.0-10, listed as 15417): 0%; Maximum Percent Change, Mitogen Induced (Con A) Mouse Lymph. Prolif. (Mouse spleen cells; 10-100, listed as 15417): 0%; Maximum Percent Change, Mitogen Induced (Con A) Mouse Lymph. Prolif. (Mouse spleen cells; .01-1.0, listed as 15417): 0%
CCCCCC[C@H]([C@H](C)O)n1cnc2c(=O)[nH]cnc21 (relative stereo) [NPT 15410]	96	96		does not potentiate the anti-influenza activity; also recorded: Both are equally active	Yes	Significant potentiation					% Inhibition of Hemadsorption Foci ([1]; Conc. <10 μg/ml, listed as 15410): 58%; % Inhibition ([2]; 0.1-1.0 μg/ml, listed as 15410): 50-70%; % Inhibition ([2]; 1.0-10 μg/ml): 30-50%; Maximum Percent Change, Mitogen Induced (Con A) Mouse Lymph. Prolif. (Mouse spleen cells; 1.0-10): 40%; Maximum Percent Change, Mitogen Induced (Con A) Mouse Lymph. Prolif. (Mouse spleen cells; 10-100): 40%; Maximum Percent Change, Mitogen Induced (Con A) Mouse Lymph. Prolif. (Mouse spleen cells; .01-1.0): 140%
